Where no end group is shown, it is not given here.
Key:
[1] = Hypotensive activity in anesthetized male Wistar rats; format: in vivo, rat; conditions: nembutal anesthesia
Description: Using male Wistar rats having a body weight of 350 g under nembutal anesthesia, the hypotensive activity was measured.

rat pituicytes = test: Adenylate Cyclase Stimulating Test in Rat Pituicyte Culture; format: cell-based; conditions: Experiment 2, blank 1.35 ± 0.05
From the text: The amino acid sequence of sheep PACAP38 is believed to be identical to that of human PACAP38. […] The minimum effective amount was 10^-12 M, and it was shown that the activity increased with increasing concentration.

Substance	Hypotensive activity (decrease from normal value) ([1]; dosage 0.3 n mole/kg) [mm Hg]	Hypotensive activity (decrease from normal value) ([1]; dosage 1.0 n mole/kg) [mm Hg]	Hypotensive activity (decrease from normal value) ([1]; dosage 3.0 n mole/kg) [mm Hg]	cAMP (M ± SEM) (rat pituicytes; 10^-7 M) [p mol/ml]	cAMP (M ± SEM) (rat pituicytes; 10^-8 M) [p mol/ml]	cAMP (M ± SEM) (rat pituicytes; 10^-9 M) [p mol/ml]	cAMP (M ± SEM) (rat pituicytes; 10^-10 M) [p mol/ml]	cAMP (M ± SEM) (rat pituicytes; 10^-11 M) [p mol/ml]	cAMP (M ± SEM) (rat pituicytes; 10^-12 M) [p mol/ml]
PACAP27 NH2 [Syn.27p-NH2]	14.5 ± 3.1	51.9 ± 9.6	4.1	9.20 ± 0.20	9.20 ± 0.00	7.90 ± 0.30	4.00 ± 0.20	2.55 ± 0.15	2.05 ± 0.15
PACAP38 NH2 (HSDGIFTDSYSRYRKQMAVKKYLAAVLGKRYKQRVKNK-NH2; UniProt P18509 132-169, looked up)	3.2 ± 1.9	17.4 ± 2.4	29.8 ± 3.6	–	–	–	–	–	–

— patent US5521069A, “Genomic DNA exons having exons encoding human pituitary adenylate cyclase activity peptide with 38 amino acids residues(PACAP38) and a promoter thereof” (Takeda Chemical Industries, Ltd., priority 1990, dated 1996)
